The results in this text go back to patent publication US20250171447A1, “ADENOSINE RECEPTOR ANTAGONISTS, PHARMACEUTICAL COMPOSITIONS AND THEIR USE THEREOF” (Merck Sharp & Dohme LLC, priority 2022, published 2025).

The target in this assay is human A2A adenosine receptor (Homo sapiens (Human), UniProt P29274). Nature of the assay: A2A receptor affinity binding assay (radioligand filtration binding or SPA, [3H]SCH58261). The following applies: membranes from HEK293 or CHO cells expressing human A2A; Method (A) filtration or Method (B) SPA.
human A2A adenosine receptor, sequence (P29274 whole entry): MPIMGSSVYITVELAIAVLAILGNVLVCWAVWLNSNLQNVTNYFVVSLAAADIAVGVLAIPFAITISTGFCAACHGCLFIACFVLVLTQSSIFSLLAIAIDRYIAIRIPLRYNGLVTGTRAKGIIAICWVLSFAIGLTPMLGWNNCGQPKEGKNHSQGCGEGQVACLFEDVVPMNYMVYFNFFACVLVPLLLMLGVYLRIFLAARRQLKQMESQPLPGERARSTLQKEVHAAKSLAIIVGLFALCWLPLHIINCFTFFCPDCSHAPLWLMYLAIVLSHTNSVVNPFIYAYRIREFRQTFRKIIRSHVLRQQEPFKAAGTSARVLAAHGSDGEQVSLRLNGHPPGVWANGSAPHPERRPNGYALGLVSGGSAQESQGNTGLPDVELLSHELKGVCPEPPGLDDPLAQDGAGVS
`COc1cccc2c1nc(N)n1nc(C3CC(c4ccc([C@@H](N)C(F)(F)F)nc4)C3)nc21` (stereo partly drawn) [Ex-96, 2-[(1r,3r)-3-{6-[(1R)-1-amino-2,2,2-trifluoroethyl]pyridin-3-yl}cyclobutyl]-7-methoxy[1,2,4]triazolo[1,5-c]quinazolin-5-amine]: the IC50 was found to be 14 nM. In turn, `COc1cccc2c1nc(N)n1nc([C@H]3C[C@@H](c4ccc(CN5CCNCC5)cc4)C3)nc21` [Ex-97, 7-methoxy-2-(cis-3-{4-[(piperazin-1-yl)methyl]phenyl}cyclobutyl)[1,2,4]triazolo[1,5-c]quinazolin-5-amine] displayed an IC50 of 0.3 nM. With `COc1cccc2c1nc(N)n1nc([C@H]3C[C@H](c4ccc(CN5CCNCC5)cc4)C3)nc21` [Ex-98, 7-methoxy-2-(trans-3-{4-[(piperazin-1-yl)methyl]phenyl}cyclobutyl)[1,2,4]triazolo[1,5-c]quinazolin-5-amine], the IC50 is 1.6 nM. This IC50 is about 5.3-fold higher than that of the compound before. Consider `COc1cccc2c1nc(N)n1nc([C@H]3C[C@@H](c4ccc([C@@]5(C(F)(F)F)CCCCN5)cc4)C3)nc21` [Ex-99, 7-methoxy-2-(cis-3-{4-[(2R)-2-(trifluoromethyl)piperidin-2-yl]phenyl}cyclobutyl)[1,2,4]triazolo[1,5-c]quinazolin-5-amine], for which the 50% inhibitory concentration (IC50) was 0.6 nM. With `COc1cccc2c1nc(N)n1nc([C@H]3C[C@H](c4ccc([C@@]5(C(F)(F)F)CCCCN5)cc4)C3)nc21` [Ex-100, 7-methoxy-2-(trans-3-{4-[(2R)-2-(trifluoromethyl)piperidin-2-yl]phenyl}cyclobutyl)[1,2,4]triazolo[1,5-c]quinazolin-5-amine] the figure was 3.2 nM; with `COc1cccc2c1nc(N)n1nc([C@H]3C[C@@H](c4cnc(N5CCN[C@H](C)C5)c(C)c4)C3)nc21` [Ex-101, 7-methoxy-2-(cis-3-{5-methyl-6-[(3R)-3-methylpiperazin-1-yl]pyridin-3-yl}cyclobutyl)[1,2,4]triazolo[1,5-c]quinazolin-5-amine], 0.7 nM. The compound `COc1cccc2c1nc(N)n1nc([C@H]3C[C@H](c4cnc(N5CCN[C@H](C)C5)c(C)c4)C3)nc21` [Ex-102, 7-methoxy-2-(trans-3-{5-methyl-6-[(3R)-3-methylpiperazin-1-yl]pyridin-3-yl}cyclobutyl)[1,2,4]triazolo[1,5-c]quinazolin-5-amine] came in with an IC50 of 1.5 nM. As to `COc1cccc2c1nc(N)n1nc([C@H]3C[C@@H](c4cnc(CN)nc4)C3)nc21` [Ex-112, 2-{(cis)-3-[2-(aminomethyl)pyrimidin-5-yl]cyclobutyl}-7-methoxy[1,2,4]triazolo[1,5-c]quinazolin-5-amine], the IC50 stood at 4.2 nM. In the case of `COc1cccc2c1nc(N)n1nc([C@H]3C[C@H](c4cnc(CN)nc4)C3)nc21` [Ex-113, 2-{trans-3-[2-(aminomethyl)pyrimidin-5-yl]cyclobutyl}-7-methoxy[1,2,4]triazolo[1,5-c]quinazolin-5-amine] it was 2.2 nM; in that of `COc1cccc2c1nc(N)n1nc([C@H]3C[C@H](c4ccc(N5CCN(C)CC5)nc4)C3)nc21` [Ex-114, 7-methoxy-2-{trans-3-[6-(4-methylpiperazin-1-yl)pyridin-3-yl]cyclobutyl}[1,2,4]triazolo[1,5-c]quinazolin-5-amine], 1.3 nM; in that of `COc1cccc2c1nc(N)n1nc([C@H]3C[C@@H](c4ccc(N5CCN(C)CC5)nc4)C3)nc21` [Ex-115, 7-methoxy-2-{cis-3-[6-(4-methylpiperazin-1-yl)pyridin-3-yl]cyclobutyl}[1,2,4]triazolo[1,5-c]quinazolin-5-amine], 1.7 nM. In the case of `COc1cccc2c1nc(N)n1nc([C@H]3C[C@@H](c4ncc(C5(O)COC5)cc4C)C3)nc21` [Ex-119, 3-{6-[cis-3-(5-amino-7-methoxy[1,2,4]triazolo[1,5-c]quinazolin-2-yl)cyclobutyl]-5-methylpyridin-3-yl}oxetan-3-ol] it was 1.8 nM; in that of `COc1cccc2c1nc(N)n1nc([C@H]3C[C@H](c4ncc(C5(O)COC5)cc4C)C3)nc21` [Ex-120, 3-{6-[trans-3-(5-amino-7-methoxy[1,2,4]triazolo[1,5-c]quinazolin-2-yl)cyclobutyl]-5-methylpyridin-3-yl}oxetan-3-ol], 0.5 nM. With `COc1cccc2c1nc(N)n1nc([C@H]3C[C@H](c4cnc(C(C)(C)N)c(C)n4)C3)nc21` [Ex-121, 2-((1r,3r)-3-(5-(2-aminopropan-2-yl)-6-methylpyrazin-2-yl)cyclobutyl)-7-methoxy-[1,2,4]triazolo[1,5-c]quinazolin-5-amine] the figure was 3.7 nM; with `COc1cccc2c1nc(N)n1nc([C@H]3C[C@@H](c4cnc(C(C)(C)N)c(C)n4)C3)nc21` [Ex-122, 2-((1s,3s)-3-(5-(2-aminopropan-2-yl)-6-methylpyrazin-2-yl)cyclobutyl)-7-methoxy-[1,2,4]triazolo[1,5-c]quinazolin-5-amine], 15.9 nM; with `COc1cccc2c1nc(N)n1nc([C@H]3C[C@@H](c4ncc(C5(N)COC5)cc4C)C3)nc21` [Ex-123, 2-{cis-3-[5-(3-aminooxetan-3-yl)-3-methylpyridin-2-yl]cyclobutyl}-7-methoxy[1,2,4]triazolo[1,5-c]quinazolin-5-amine], 1.8 nM. Regarding `COc1cccc2c1nc(N)n1nc([C@H]3C[C@H](c4ncc(C5(N)COC5)cc4C)C3)nc21` [Ex-124, 2-{trans-3-[5-(3-aminooxetan-3-yl)-3-methylpyridin-2-yl]cyclobutyl}-7-methoxy[1,2,4]triazolo[1,5-c]quinazolin-5-amine], the half-maximal inhibitory concentration (IC50) turned out to be 0.4 nM. Compared with the last compound, the IC50 is about 4.5-fold lower.

`COc1cccc2c1nc(N)n1nc([C@H]3C[C@H](c4ncc(C(C)(C)N)nc4C4CC4)C3)nc21` [Ex-125, 2-((1r,3r)-3-(5-(2-aminopropan-2-yl)-3-cyclopropylpyrazin-2-yl)cyclobutyl)-7-methoxy-[1,2,4]triazolo[1,5-c]quinazolin-5-amine]: the IC50 was 2.6 nM. Compound `COc1cccc2c1nc(N)n1nc([C@H]3C[C@H](c4ncc(C(C)(C)N)nc4C(F)(F)F)C3)nc21` [Ex-126, 2-{trans-3-[5-(2-aminopropan-2-yl)-3-(trifluoromethyl)pyrazin-2-yl]cyclobutyl}-7-methoxy[1,2,4]triazolo[1,5-c]quinazolin-5-amine] gave a concentration for half-maximal inhibition (IC50) of 4.6 nM. In the case of `Cc1nc(C(C)(C)N)cnc1[C@H]1C[C@H](c2nc3c4cccc(Cl)c4nc(N)n3n2)C1` [Ex-127, 2-((1r,3r)-3-(5-(2-aminopropan-2-yl)-3-methylpyrazin-2-yl)cyclobutyl)-7-chloro-[1,2,4]triazolo[1,5-c]quinazolin-5-amine] it was 2.9 nM; in that of `Cc1nc(C(C)(C)N)cnc1[C@H]1C[C@H](c2nc3c4cccc(F)c4nc(N)n3n2)C1` [Ex-133, 2-{trans-3-[5-(2-aminopropan-2-yl)-3-methylpyrazin-2-yl]cyclobutyl}-7-fluoro[1,2,4]triazolo[1,5-c]quinazolin-5-amine], 5.7 nM; in that of `Cc1nc(C(C)(C)N)cnc1[C@H]1C[C@@H](c2nc3c4cccc(F)c4nc(N)n3n2)C1` [Ex-134, 2-{cis-3-[5-(2-aminopropan-2-yl)-3-methylpyrazin-2-yl]cyclobutyl}-7-fluoro[1,2,4]triazolo[1,5-c]quinazolin-5-amine], 148 nM.
